Data as given in patent EP0075823A2, “Use of basically substituted phenylacetonitriles in the prophylactic treatment of illnesses” (KNOLL AG, priority 1981, dated 1983).

System: diabetischer Ratten
Experiment: Alloxan-induced diabetes mellitus in rats: prevention of lens and arterial wall calcinosis
Assay type: in vivo, Wistar-Ratten
Settings: for durch Calcinose von Gefäßwänden verursachte Arterienveränderungen verhindern: attempts with other calcium antagonists, no dose or model details printed
Protocol: Gemäß der Erfindung wird es zum ersten Mal möglich, die Krankheiten vorbeugend bei Warmblütern mit Erfolg medikamentös zu behandeln, wie folgende Versuche zeigen: • Wistar-Ratten im Alter von 2 Monaten erhielten zur Erzeugung eines Diabetes mellitus intravenös 80 mg/kg Alloxan. Nach Zerstörung der Insulin-produzierenden ß-Zellen im Pancreas stieg der Blutzuckerwert bei den Tieren von 100 mg% auf etwa 420 mg%. Dieser Wert blieb während einer Beobachtungszeit von 6 1/2 Monaten praktisch konstant. Während der Beobachtungszeit erhielt ein Teil der Tiere täglich 25 mg/kg Verapamilhydrochlorid mit einer Schlucksonde. Bei den nicht mit Verapamil behandelten Tieren kam es in dieser Zeit bei 63 % der Tiere zu einem völligen Verlust der Transparenz der Augenlinse, während sich bei den behandelten Tieren nur in 4 % der Fälle ein Katarakt bildete.
Ohne Verapamil stieg der Calcium-Gehalt der Linse diabetischer Ratten vom Normalwert nicht-diabetischer Kontrolltiere (= 1,08 (i 0,02)) auf 10,89 (± 0,85) mmol/kg Trockengewicht an. Dagegen verblieb mit Verapamil der mittlere Calcium-Gehalt der Linsen diabetischer Tiere in dem niedrigeren Bereich von 3,46 (± 0,61) mmol/kg Trockengewicht.
-Mit der Verhinderung des Calcium-Anstiegs in den Arterien--Wänden wurden auch die elektronen-optisch - hauptsächlich in der Media - nachweisbaren degenerativen Prozesse verhütet.

COc1ccc(CCN(C)CCCC(C#N)(c2cc(OC)c(OC)c(OC)c2)C(C)C)cc1OC (stereo not drawn) [Gallopamil, α-ISOpropyl-α-[(N-methyl-N-homoveratryl)--α-aminopropyl]-3,4,5-trimethoxyphenylacetonitril] was tested, and the “Verhütung der diabetischen Linsen-Calcinose und des Calcium-Anstiegs in den Arterien-Wänden” value (general statement that corresponding results can be obtained, no data or dose printed) was “Entsprechende Ergebnisse”.

For COC(=O)C1=C(C)NC(C)=C(C(=O)OC)C1c1ccccc1[N+](=O)[O-] [Nifedipin], the “durch Calcinose von Gefäßwänden verursachte Arterienveränderungen verhindern” value was “erfolglos”.

With CCCOCCOC(=O)C1=C(C)NC(C)=C(C(=O)OCCOCCC)C1c1cccc([N+](=O)[O-])c1 [Niludipin] the “durch Calcinose von Gefäßwänden verursachte Arterienveränderungen verhindern” value was “erfolglos”.

For COc1ccc(CCN(C)CCCC(C#N)(c2ccc(OC)c(OC)c2)C(C)C)cc1OC (stereo not drawn) [Verapamil, α-Isopropyl-α-[(N-methyl-N-homoveratryl)--α-aminopropyl]-3,4-dimethoxyphenylacetonitril], the “Katarakt (völliger Verlust der Transparenz der Augenlinse), Anteil der Tiere” value (alloxan-diabetic Wistar rats (80 mg/kg Alloxan i.v.), 25 mg/kg daily by gavage, observation 6 1/2 months, untreated diabetic animals 63 %) was 4%, the “mittlerer Calcium-Gehalt der Linsen diabetischer Tiere” value (alloxan-diabetic rats, 25 mg/kg daily p.o., 6 1/2 months, untreated diabetic 10,89 (± 0,85), non-diabetic controls 1,08) was 3,46 (± 0,61) mmol/kg Trockengewicht and the “elektronen-optisch - hauptsächlich in der Media - nachweisbare degenerative Prozesse” value (arterial walls of the same treated diabetic rats, electron microscopy) was “verhütet”. For the same compound, the “abnormer Anstieg der Calcium-Werte in der Wand der Aorta und der Arteria mesenterica superior (Darmarterie)” value (same alloxan-diabetic rats, 25 mg/kg daily p.o., 6 1/2 months) was “verhindert”.
